Test results published in patent US10736934B2, “Proteasome modulation for treatment of corneal disorders” (The Lundquist Institute, priority 2015, dated 2020).

Legend:
[1] = system: 26S constitutive proteasome (CPR); experiment: Proteasome chymotrypsin-like activity in cultured oral mucosa epithelial cells treated with PS-341; type: cell-based, rabbit
Protocol: (§1) After two weeks of cell culture and when the cells grew to form a multilayered tissue like, proteasome inhibitor (PS-341, (Bortezomib/Velcade®, Millennium Pharmaceutical, a highly specific proteasome inhibitor) was added in cell culture media for 24 h and for 72 h at 2.5, 5, 10, 20, and 50 nM, to, respectively achieve proteasome inhibition or proteasome activation.
One μg of total protein from sample homogenates was used. The reaction mixture contained 50 mM Tris-HCl pH=8, 1 mM DTT, and 40 μM Suc-Leu-Leu-Val-Tyr-AMC (Sigma Aldrich) substrate for chymotrypsin-like activity or 40 μM of Boc-Leu-Ser-Thr-Arg-AMC for trypsin-like activity or 100 uM of Ac-Gly-Pro-Leu-Asp-AMC (Sigma Aldrich) for Caspase-like activity. 5 mM ATP was added to the reaction mixture to distinguish 26S proteasome activity from 20S proteasome activity. The mixture was then incubated for 30 min at 37° C., and then stopped by adding […] monochloroacetate and 30 mM sodium acetate pH=4.3. Fluorescence was determined by measuring the release of AMC (λ, excitation: 370 nm, λ, emission: 410 nm), using a Perkin Elmer LS 30 spectrofluorometer.

Keratin 13 (K13) = experiment: Western blot of K13 in PS-341-treated oral mucosa epithelial cells; type: cell-based, rabbit; conditions: OMECS
Protocol: as §1

Keratin 4 (K4) = experiment: Western blot of K4 in PS-341-treated oral mucosa epithelial cells; type: cell-based, rabbit; conditions: OMECS
Protocol: as §1

[2] = system: poly-ubiquitinated proteins; experiment: Western blot of poly-ubiquitinated proteins in PS-341-treated oral mucosa epithelial cells; type: cell-based, rabbit; conditions: 2.5 nM PS-341, 72 h
Protocol: as §1

[3] = system: oral mucosa epithelial cells (OMECS); experiment: Toxicity of low-dose PS-341 in oral mucosa epithelial cells; type: cell-based, rabbit; conditions: 2.5 nM PS-341 (very low dose), 72 h
Protocol: as §1

IκB / NFκB = IκB / NFκB activation in PS-341-treated oral mucosa epithelial cells
[4] = high doses 10 and 50 nM, 24 hours

## CC(C)C[C@H](NC(=O)[C@H](Cc1ccccc1)NC(=O)c1cnccn1)B(O)O [PS-341, Bortezomib]
[1]; 2.5 nM PS-341, 24 h, oral mucosa epithelial cells
  CPR chymotrypsin-like activity decrease: 9%
[1]; 2.5 nM PS-341, 72 hours, oral mucosa epithelial cells
  increase in proteasome chymotrypsin-like activity versus untreated cells: 61%
[1]; 5 nM PS-341, 24 h, oral mucosa epithelial cells
  CPR chymotrypsin-like activity decrease: −41%
[1]; 5 nM PS-341, 72 hours, oral mucosa epithelial cells
  proteasome activities at 72 hours: increased proteasome activities
[1]; 10 nM PS-341, 24 h, oral mucosa epithelial cells
  CPR chymotrypsin-like activity decrease: −59%
[1]; 10 nM PS-341, 72 hours, oral mucosa epithelial cells
  proteasome activities at 72 hours: increased proteasome activities
[1]; 20 nM PS-341, 24 h, oral mucosa epithelial cells
  CPR chymotrypsin-like activity decrease: −84%
[1]; 50 nM PS-341, 24 h, oral mucosa epithelial cells
  CPR chymotrypsin-like activity decrease: −86%
[1]; high doses 10 and 50 nM, 24 hours, OMECS
  Chymotrypsine-like proteasome activity: decreased
Keratin 13 (K13); 2.5 nM PS-341, 72 hours
  K13 levels: decreased
Keratin 13 (K13); [4]
  K13 level: modified and significantly accumulated
Keratin 4 (K4); 2.5 nM PS-341, 72 hours
  K4 levels: decreased
Keratin 4 (K4); [4]
  K4 level: modified and significantly accumulated
[2]
  poly-ubiquitinated protein accumulation: no significant poly-ubiquitinated protein accumulation
[3]
  toxic effects: does not produce toxic effects
IκB / NFκB; 2.5 nM PS-341, 72 hours after treatment, OMECS
  levels of expression of Inhibitor Kappa B: decreased
IκB / NFκB; 2.5 nM PS-341, OMECS
  NFκB activation: blocked NFκB activation
IκB / NFκB; 2.5 nM PS-341, first 24 hours, OMECS
  IκB: stabilizing IκB
